Experimental data published in patent publication US20200253877A1, “GEMCABENE, PHARMACEUTICALLY ACCEPTABLE SALTS THEREOF, COMPOSITIONS THEREOF AND METHODS OF USE THEREFOR” (NEUROBO PHARMACEUTICALS, INC., priority 2018, published 2020).

System: hepatic mRNA expression in STAM™ mice
Assay: Murine STAM model of NASH-HCC: hepatic gene expression by quantitative RT-PCR
Type: in vivo, mouse
Experimental: A study was performed to evaluate the efficacy of gemcabene calcium salt hydrate Crystal Form 1 having a PSD90 of 52 μm as measured by laser light diffraction, in treating non-alcoholic steatosis hepatitis (NASH) in the murine STAM™ model of NASH-HCC.
Briefly, two-day old neonatal C57BL/6 male mice were administered low-dose streptozotocin (STZ), and were subsequently fed a HFC diet from 4 weeks of age. In this model, the mice typically develop liver steatosis and diabetes, reaching steatohepatitis within 3 weeks, followed by cirrhosis within 8 weeks, and carcinoma within 16 weeks. In the current study, mice were administered daily oral gemcabene calcium salt hydrate Crystal Form 1 starting at week 6 of age and were sacrificed at week 9. […] These STAM™ groups were orally administered from week 6 one of the following: water-vehicle, gemcabene calcium salt hydrate Crystal Form 1 at 30, 100 and 300 mg/kg daily, or telmisartan ([…]®) 10 mg/kg daily. […] All groups were sacrificed at week 9. Vehicle, gemcabene calcium salt hydrate Crystal Form 1, or telmisartan were administered by oral gavage once daily.
Various gene expression markers of liver metabolism were evaluated by Real-Time PCR (RT-PCR) in all mouse groups. Total RNA was extracted from liver samples using RNAiso (Takara Bio, Japan) according to the manufacturer's instructions. […] of RNA was reverse-transcribed using a reaction mixture containing 4.4 mM MgCl2 (F. Hoffmann-La Roche, Switzerland), 40 U RNase inhibitor (Toyobo, Japan), 0.5 mM dNTP (Promega, USA), 6.28 μM random hexamer (Promega), 5×first strand buffer (Promega), 10 mM dithiothreitol (Invitrogen, USA) and 200 U MMLV-RT (Invitrogen) in a final volume of 20 μL. The reaction was carried out for 1 hour at 37° C., followed by 5 minutes at 99° C. Real-time PCR was performed using real-time PCR DICE and SYBR premix Taq (Takara Bio). To calculate the relative mRNA expression level, the expression of each gene was normalized to that of reference gene 36B4 (gene symbol: RplpO). Information of PCR-primer sets is described in Tables 37A-37C. Statistical analyses were performed using the Bonferroni Multiple Comparison Test on GraphPad Prism 6 (GraphPad Software Inc., USA). P values <0.05 were considered statistically significant. Results are expressed as mean±SD.
In order to calculate the relative mRNA expression level, the expression of each gene was normalized to that of the reference gene 36B4 (gene symbol: RplpO). The gene expression levels were measured by quantitative RT-PCR. Results were normalized with values for the vehicle-treated normal group. […] Gemcabene calcium salt hydrate Crystal Form 1 (PSD90=52 μm) modulated the mRNA expression of many hepatic genes that play a significant role in the liver homeostasis and injury.

[1] = gemcabene Form 1 100 mg/kg, telmisartan 10 mg/kg
[2] = vs Vehicle in NASH group, gemcabene Form 1 30 mg/kg
[3] = vs Vehicle in NASH group, gemcabene Form 1 100 and 300 mg/kg
[4] = vs Vehicle in NASH group, gemcabene Form 1 100 and 300 mg/kg, telmisartan 10 mg/kg

CC(C)(CCCCOCCCCC(C)(C)C(=O)O)C(=O)O.[Ca] [6-(5-Carboxy-5-methyl-hexyloxy)-2,2-dimethylhexanoic acid calcium]
LDL receptor gene expression (STAM mice): no effect | hepatic ApoC-III mRNA (STAM mice): significantly downregulated | MMP-2 mRNA expression (relative, mean±SD) (gemcabene Form 1 100 mg/kg): 0.5±0.2 | NF-κB mRNA expression (relative, mean±SD) (gemcabene Form 1 100 mg/kg): 0.9±0.1 | Sulf-2 mRNA expression (relative, mean±SD) (gemcabene Form 1 100 mg/kg): 3.8±0.7 | TIMP-1 mRNA expression (relative, mean±SD) (gemcabene Form 1 100 mg/kg): 3.8±1.6 | TNF-α mRNA expression (relative to vehicle-treated normal group, mean±SD) (gemcabene Form 1 100 mg/kg): 2.0±0.8 | ACC-1 mRNA expression (relative, mean±SD) [1]: 0.7±0.1 | ADH-4 mRNA expression (relative, mean±SD) [1]: 0.6±0.1 | CCR2 mRNA expression (relative, mean±SD) [1]: 1.6±0.4 | CCR5 mRNA expression (relative, mean±SD) [1]: 1.4±0.3 | CRP mRNA levels (relative, mean±SD) [1]: 0.6±0.1 | MCP-1 mRNA expression (relative, mean±SD) [1]: 1.7±0.7 | MIP-1β mRNA levels (relative, mean±SD) [1]: 2.3±0.9 | ADH-4 mRNA expression (relative, mean±SD) (gemcabene Form 1 300 mg/kg): 0.5±0.1 | CCR2 mRNA expression (relative, mean±SD) (gemcabene Form 1 300 mg/kg): 1.7±0.7 | CCR5 mRNA expression (relative, mean±SD) (gemcabene Form 1 300 mg/kg): 1.3±0.3 | CRP mRNA levels (relative, mean±SD) (gemcabene Form 1 300 mg/kg): 0.5±0.1 | MCP-1 mRNA expression (relative, mean±SD) (gemcabene Form 1 300 mg/kg): 1.6±0.7 | MIP-1β mRNA levels (relative, mean±SD) (gemcabene Form 1 300 mg/kg): 2.8±1.4 | MMP-2 mRNA expression (relative, mean±SD) (gemcabene Form 1 300 mg/kg): 0.9±0.2 | NF-κB mRNA expression (relative, mean±SD) (gemcabene Form 1 300 mg/kg): 0.8±0.1 | Sulf-2 mRNA expression (relative, mean±SD) (gemcabene Form 1 300 mg/kg): 3.3±0.9 | TIMP-1 mRNA expression (relative, mean±SD) (gemcabene Form 1 300 mg/kg): 4.4±2.1 | TNF-α mRNA expression (relative to vehicle-treated normal group, mean±SD) (gemcabene Form 1 300 mg/kg): 1.9±0.7 | ANGPTL4 mRNA expression level [2]: no significant difference | IL-6 mRNA expression level [2]: no significant difference | Fetuin-A mRNA expression level (vs Vehicle in NASH group, gemcabene Form 1 100 mg/kg): significant down-regulation | SCD mRNA expression level (vs Vehicle in NASH group, gemcabene Form 1 300 mg/kg): significant up-regulation | hepatic LPL mRNA expression levels (vs Vehicle in NASH group, gemcabene Form 1 30, 100 and 300 mg/kg, telmisartan 10 mg/kg): significant up-regulations | ANGPTL3 mRNA expression levels [3]: significant down-regulations | CXCL1/KC mRNA expression levels [3]: marked down-regulation | ANGPTL4 mRNA expression levels [4]: significant down-regulations | IL-6 mRNA expression level [4]: significant down-regulations
